Patent publication US20090099095A1, “Novel neuroprotective peptide” (priority 2007, published 2009)

Experiments:
[1] = test system: cells in the dentate gyrus of OHSCs; test: Immunofluorescence count of dentate gyrus cells double-labelled for PI and DCX or NeuN after NMDA; assay type: cell-based, rat
Protocol: To determine the cell types which were protected by pentinin, we fixed OHSCs and performed immunofluorescence for markers of neuronally committed progenitors (DCX) and neurons (NeuN). Cells in the dentate gyrus were counted, and the percentage of cells double-labelled for PI and each marker was determined.
To characterise cell death, OHSCs were cultured in N2 medium with different concentrations of NMDA (in the presence of PI). After 24 h, OHSCs were washed in PBS and fixed in 4% paraformaldehyde (overnight, 4° C.). OHSCs were blocked and permeabilised by incubation for two hours in PTS (0.1M sodium phosphate buffer, 0.3% triton X-100 and 1% donkey serum (Jackson Immunoresearch Laboratories Inc., West Grove, Pa.)) at room temperature (RT), then incubated overnight (rocking, 4° C.) with mouse anti-NeuN antibody (1:500, Chemicon International Inc, Temecula, Calif.), rabbit anti-Caspase3A antibody (1:250, Cell Signalling Technology), and goat anti doublecortin antibody (Dcx, 1:400, Santa Cruz Biotechnology, Santa Cruz, USA). After thorough washing (3×30 mins in PTS, rocking), OHSCs were incubated overnight (rocking, 4° C.) with donkey anti-mouse Alexa 647-conjugated antibody (1:800, Molecular Probes, Leiden, Netherlands), donkey anti-rabbit Alexa 488-conjugated antibody (1:800, Molecular Probes) and donkey anti-goat Alexa 488-conjugated antibody (1:800, Molecular Probes). OHSCs were washed thoroughly and mounted in Prolong Gold mounting medium (Molecular Probes). Colocalisation of PI and/or Caspase3A staining with NeuN and Dcx immunofluorescence was determined by confocal microscopy (Leica TCS SP2, Leica Microsystems AG, Wetzlar, Germany).

[2] = test system: organotypic hippocampal slice cultures (OHSCs); test: NMDA-induced excitotoxicity in organotypic hippocampal slice cultures, propidium iodide (PI) uptake; assay type: cell-based, rat
Protocol: To test the neuroprotective qualities of test media, OHSCs were first preincubated with PI for 24 hours. Fluorescent photomicrographs were taken, and used to determine the level of background staining. OHSCs were then transferred to test media one hour before 10 μM NMDA was added. Photomicrographs were taken again after 24 hours of NMDA exposure, and the change in PI staining intensity was quantified.
Rat organotypic hippocampal slice cultures (400 μm thick) were prepared from P9 Sprague-Dawley rats, using the method of Stoppini and coworkers^9. OHSCs were cultured in slice medium (50% BME, 25% EBSS, 23% horse serum, 7.5 mg/ml D-glucose, 1 mM L-glutamine and 25 U/ml PEST) for 12-14 days before experiments commenced.
OHSCs were transferred to test media one hour before exposure to 10 μM NMDA for 24 h. The degree of NMDA-induced excitotoxicity was determined by comparing propidium iodide (PI) uptake prior to exposure with that following exposure. Pictures were captured using a digital camera (Olympus DP50) coupled to an inverted fluorescence microscope (Olympus IX70), equipped with a red long-pass WG fluorescence filter. Uptake of PI was quantified as the mean pixel intensity of epifluorescence, over the whole slice, or in defined sub-regions (ImageJ v1.29x).

[3] = test system: organotypic hippocampal slice cultures (OHSCs); conditions: high doses, literature ref 10; cited from earlier work

| Molecule | reduction of percentage of immature neuronal marker (DCX) cells co-labelled with PI ([1]; 100 pM pentinin) | reduction of percentage of mature neuronal marker (NeuN) cells co-labelled with PI ([1]; 100 pM pentinin) | number of neurons killed by NMDA-induced toxicity ([1]; 100 pM synthetic pentinin) | effect on excitotoxicity induced by NMDA ([2]; 100 μM peptide in unconditioned medium) | effective dose in dose response assay ([2]; synthetic peptide added to unconditioned medium, results not shown) | doses at which neuroprotective in OHSCs [3] | effect on NMDA-induced excitotoxicity / PI staining (in words) ([2]; whole slice, 10 μM NMDA 24 h, GDNF at 1 ng/ml where added) |
| --- | --- | --- | --- | --- | --- | --- | --- |
| tyr, thr, pro, lys, thr (YTPKT; Human) [pentinin, pentameric peptide fragment corresponding to residues 26-30 of the insulin B chain] | 86% | 64% | markedly reduced | reduce excitotoxicity | 100 µM |  |  |
| glial-derived neurotrophic factor (protein, UniProt P39905 78-211, looked up, recombinant protein added to control medium at 1 ng/ml) Glial cell line-derived …: SPDKQMAVLPRRERNRQAAAANPENSRGKGRRGQRGKNRGCVLTAIHLNVTDLGLGYETKEELIFRYCSGSCDAAETTYDKILKNLSRNRRLVSDKVGQACCRPIAFDDDLSFLDDNLVYHILRKHSAKRCGCI |  |  |  |  |  | 50 to 100 ng/mL | did not reduce excitotoxicity |
